{"source": "patent US20090117598A1", "about": "“Method for identifying compounds that affect a transport of a protein through a membrane trafficking pathway” (priority 2004, published 2009)", "type_in_all_cases": "cell-based", "key": {"Hela cells": {"system": "Hela cells", "assay": "fluid phase endocytosis assay (BODIPY-FL dextran internalization)", "conditions": "for number of endosomes relative to the control: BODIPY-FL dextran 20 min at 37° C., FIG. 3b; for integrated fluorescence intensity per cell relative to the control: data not shown", "protocol": "For the fluid phase endocytosis assay, Hela cells in 96 well plates were washed and incubated for 120 min with the compounds in serum free buffered medium under tissue culture conditions. The medium was then replaced with serum-free buffered medium supplemented with 1 mg/ml BODIPY-FL-Dextran and 10 μM Syto60. Cells were incubated for 20 min at 37° C., then placed on a cooled block and washed extensively with ice cold phosphate buffered saline 10% w/v bovine serum albumin (Serva; Heidelberg, Germany). Plates were imaged by the Opera using 488/633 nm excitation, 3 μm focus height above the coverslip, 1000 ms or 500 ms exposure and 510 nm (50 nm bandpass) or 680 (50 nm bandpass) filters, respectively.\nFluid phase endocytosis was measured using custom written scripts in Metamorph. Cells were identified in the 633 nm excitation SYTO60 image, the nuclei segmented and cells counted. A mask was generated from this image and used to identify cells in overlay of the 488 nm BODIPY-FL dextran image, to create regions of interest around the cell borders and excise them from the image. Background was deducted from the processed BODIPY-FL dextran image that was thresholded to identify endosomes as individual regions of interest. Image pairs with less than 300 cells per field of view were rejected.\nA fluid phase endocytosis assay measured the internalization of green fluorescent 40 kDa BODIPY-FI dextran. Dextrans are ideal endocytotic markers for labelling endosomes and macropinosomes. In this assay, endosomes labelled with fluorescent dextran by internalization were readily identified with the Opera instrument (FIG. 2b). Dextran internalization satisfied all the classical prerequisites for an internalization assay—it was temperature dependent, arrested at 4° C. (FIG. 2a), and required a source of energy in the medium. Endocytosis was quantified by analysis of paired images of cells labelled with green dextran and the SYTO60 nuclear counter stain. The analysis was validated on cells that had internalized green fluorescent dextran for 20 min at 37° C. or at 4° C. (FIG. 2c).\nTo identify compounds affecting GPCR internalization and not affecting housekeeping endocytosis, the kinase and phosphatase inhibitor collection was screened against the fluid phase endocytosis assay (FIG. 3b). The effect of the compounds was evaluated. Four compounds (staurosporine, tyrphostin 9, AG-879, GF 109203×) were identified that reduced the number of endosomes (FIG. 3b) and the integrated intensity per cell relative to the control (data not shown)."}, "[1]": {"system": "ETAR internalization and fluid phase endocytosis", "assay": "Overlap of the ETAR internalization and the fluid phase endocytosis screen", "conditions": "FIG. 3b", "from_the_text": "Overlap of the ETAR internalization and the fluid phase endocytosis screen was used to generate differential information from the two assays."}, "[2]": {"system": "human endothelin A receptor", "assay": "ETAR (GPCR) internalization assay, ETAR-EGFP in stably transfected HEK 293 cells", "conditions": "for receptor trafficking morphology observed (visual screen of primary hits): stimulation with 40 nM endothelin-1, FIG. 4", "from_the_text": "A human endothelin A receptor cDNA clone in pCDNA3.1(−) (Invitrogen Carlsbad, USA) was excised via KpnI/HindIII and fused to the egfp coding sequence of the pEGFP-N1 vector (Clontech, Palo Alto USA) by splice overlap PCR using specific primers. The amplified fragment was digested via KpnI/EcoRV and ligated in the pCDNA3.1(−) vector digested with the same combination of restriction enzymes. The resulting pETAR-EGFP DNA was cloned, checked by sequencing and used for transfection of HEK 293 cells using standard protocols. A recombinant clone was obtained through several cycles of genetecin selection and limiting dilutions. For screening, cells were passed onto coverslip bottomed 96 well plates (Greiner; Longwood, USA, or Whatman; Brentford, UK) at a density of 4·10^3 cells/well for Hela and 2·10^4 cells/well for HEK293 cells, 48 hours in advance.\nFor the GPCR internalization assay, recombinant HEK cells grown were plated in 96 well plates and incubated overnight in DMEM/F12 containing 10% FBS. The plates were washed and the cells incubated for 120 min under tissue culture conditions with the compounds in 1% serum medium. The compound solutions were then exchanged for a solution with the same compound concentration and supplemented with 40 nM endothelin-1 and 10 μM Syto60. Cells were incubated for 120 min at 22° C. Plates were imaged by the Opera using 488/633 nm excitation, 3 μm focus height above the coverslip, 250 ms or 500 ms exposure and 510 nm (50 nm bandpass) or 680 (50 nm bandpass) filters, respectively. Typically, 5 image pairs (at 488 and 633 nm excitation) per well were acquired.\nGPCR translocation was evaluated using scripts within the Acapella script player software environment of the Opera. The script measured translocation of the ETAR-EGFP fusion protein from the plasma membrane into recycling endosomes. Cells were first located in the 633 nm excitation SYTO60 image. Red fluorescent nuclei were identified by thresholding and edge seeking and then segmented to create a mask. The number of cells was counted and the nuclei mask used to generate a new cytoplasmic mask. Subsequently, each cell was individually segmented and cells with at least one bright recycling endosome were identified. Image analysis was performed on- and offline and analyses were rejected if the cell count was beneath 100 per field of view.\nThe endothelin A GPCR internalization screen was carried out using a stably transfected HEK 293 cell line expressing a fusion protein between the ETAR and a c-terminal copy of the enhanced green fluorescent protein. […] This internalization event was used as the basis for measuring trafficking of the receptor by image analysis. Serum deprived cells were stimulated with endothelin-1 at several concentrations and simultaneously counterstained with DRAQ5 or SYTO60, which are long wavelength excitable DNA and nucleic acid stains, respectively. The cells were stimulated for 120 min at 22-23° C., then imaged on the Opera automated confocal imaging reader. Images of the GFP and red counterstain fluorescence were automatically recorded and used to determine the number of cells where internalization of the receptor had occurred.\nCells were pre-treated with 10 μM compound before stimulation with 40 nM endothelin-1 to ensure a uniform and robust internalization response for the receptor."}, "[3]": {"conditions": "secondary screen 0.1 μM to 50 μM, FIG. 5"}}, "data": [{"smiles": "CC(C)(C)c1cc(/C=C(\\C#N)C(N)=S)cc(C(C)(C)C)c1O", "note": "[AG-879]", "values": [{"measurement": "number of endosomes relative to the control", "setting": "Hela cells", "result": "reduced"}, {"measurement": "integrated fluorescence intensity per cell relative to the control", "setting": "Hela cells; BODIPY-FL dextran", "result": "reduced"}]}, {"smiles": "CN(C)CCCn1cc(C2=C(c3c[nH]c4ccccc34)C(=O)NC2=O)c2ccccc21", "note": "[GF 109203X]", "values": [{"measurement": "comparison of the responses in the ETAR internalization and fluid phase endocytosis assays", "setting": "[1]", "result": "congruent in both assays"}, {"measurement": "number of endosomes relative to the control", "setting": "Hela cells", "result": "reduced"}, {"measurement": "integrated fluorescence intensity per cell relative to the control", "setting": "Hela cells; BODIPY-FL dextran", "result": "reduced"}]}, {"smiles": "O=C1Nc2ccc(I)cc2/C1=C/c1cc(Br)c(O)c(Br)c1", "note": "[GW 5074]", "values": [{"measurement": "comparison of the responses in the ETAR internalization and fluid phase endocytosis assays", "setting": "[1]", "result": "large difference"}, {"measurement": "hit classification in the primary screen", "setting": "[2]; 10 μM compound, 40 nM endothelin-1, FIG. 3b", "result": "partial hit"}, {"measurement": "concentration at which effect on GPCR internalization was seen (secondary screen)", "setting": "[2]; [3]", "result": 50, "unit": "µM"}, {"measurement": "effect on accumulation of the receptor in recycling endosomes", "setting": "[2]; versus untreated endothelin-1 stimulated control cells, FIG. 4d", "result": "delayed accumulation of the receptor in the recycling endosomes"}]}, {"smiles": "O=S(=O)(NCCNC/C=C/c1ccc(Br)cc1)c1cccc2cnccc12", "note": "[H-89]", "values": [{"measurement": "comparison of the responses in the ETAR internalization and fluid phase endocytosis assays", "setting": "[1]", "result": "large difference"}, {"measurement": "receptor trafficking morphology observed (visual screen of primary hits)", "setting": "[2]; 10 μM compound", "result": "enhanced accumulation in the recycling endosome"}]}, {"smiles": "Cn1cc(C2=C(c3cn(CCCSC(=N)N)c4ccccc34)C(=O)NC2=O)c2ccccc21", "note": "[Ro 31-8220]", "values": [{"measurement": "comparison of the responses in the ETAR internalization and fluid phase endocytosis assays", "setting": "[1]", "result": "large difference"}, {"measurement": "receptor trafficking morphology observed (visual screen of primary hits)", "setting": "[2]; 10 μM compound", "result": "arrest of the receptor at the plasma membrane"}]}, {"smiles": "CC[C@H](C)[C@H](NC(=O)[C@H](CC(=O)O)NC(=O)[C@H](CC(C)C)NC(=O)[C@H](Cc1c[nH]cn1)NC(=O)[C@@H]1CSSC[C@H](N)C(=O)N[C@@H](CO)C(=O)N[C@H]2CSSC[C@H](NC(=O)[C@H](CCC(=O)O)NC(=O)[C@H](CCCCN)NC(=O)[C@H](CC(=O)O)NC(=O)[C@H](CCSC)NC(=O)[C@H](CC(C)C)NC(=O)[C@H](CO)NC(=O)[C@H](CO)NC2=O)C(=O)N[C@@H](C(C)C)C(=O)N[C@@H](Cc2ccc(O)cc2)C(=O)N[C@@H](Cc2ccccc2)C(=O)N1)C(=O)N[C@H](C(=O)N[C@@H](Cc1c[nH]c2ccccc12)C(=O)O)[C@@H](C)CC", "note": "[endothelin-1]", "values": [{"measurement": "ETAR localization after endothelin-1 stimulation", "setting": "[2]", "result": "internalization of the fluorescent ETAR into an intracellular peri-centriolar compartment"}, {"measurement": "EC50", "setting": "[2]; read-out: EC50 of endothelin stimulation (ETAR-EGFP internalization)", "result": 3.4, "unit": "nM"}]}, {"smiles": "COC(=O)/C=C/c1cc(O)ccc1O", "note": "[erbstatin analogue]", "values": [{"measurement": "comparison of the responses in the ETAR internalization and fluid phase endocytosis assays", "setting": "[1]", "result": "large difference"}, {"measurement": "receptor trafficking morphology observed (visual screen of primary hits)", "setting": "[2]; 10 μM compound", "result": "arrest of the receptor in small vesicular bodies"}]}, {"smiles": "O=c1c(-c2ccc(O)cc2)coc2cc(O)cc(O)c12", "note": "[genistein]", "values": [{"measurement": "number of endosomes relative to the control", "setting": "Hela cells", "result": "increased"}, {"measurement": "integrated fluorescence intensity per cell relative to the control", "setting": "Hela cells; BODIPY-FL dextran", "result": "significantly increased"}]}, {"smiles": "CN[C@@H]1C[C@H]2O[C@@](C)([C@@H]1OC)n1c3ccccc3c3c4c(c5c6ccccc6n2c5c31)C(=O)NC4", "note": "[staurosporine]", "values": [{"measurement": "comparison of the responses in the ETAR internalization and fluid phase endocytosis assays", "setting": "[1]", "result": "congruent in both assays"}, {"measurement": "receptor trafficking morphology observed (visual screen of primary hits)", "setting": "[2]; 10 μM compound", "result": "arrest of the receptor at the plasma membrane"}, {"measurement": "effective concentration for blocking GPCR internalization (secondary screen)", "setting": "[2]; [3]", "result": 100, "unit": "nM"}, {"measurement": "endosomal pixel intensity", "setting": "Hela cells; BODIPY-FL dextran", "result": "slightly increased"}, {"measurement": "number of endosomes relative to the control", "setting": "Hela cells", "result": "reduced"}, {"measurement": "integrated fluorescence intensity per cell relative to the control", "setting": "Hela cells; BODIPY-FL dextran", "result": "reduced"}]}, {"smiles": "CC(C)(C)c1cc(C=C(C#N)C#N)cc(C(C)(C)C)c1O", "note": "[tyrphostin 9]", "values": [{"measurement": "number of endosomes relative to the control", "setting": "Hela cells", "result": "reduced"}, {"measurement": "integrated fluorescence intensity per cell relative to the control", "setting": "Hela cells; BODIPY-FL dextran", "result": "reduced"}]}]}
